# Where “and” joins values, the source holds several entries; their conditions need not be identical. Identical values can stand only once. Like-named read-outs stand apart in the source and are kept apart here.
# Columns and labels:
# [1] = Fraction unbound in human liver microsomes (fumic); conditions: extrapolated from value measured at 0.4 mg/mL to 0.1 mg/mL, method of Austin et al., 2002
# [2] = tested on: Caco-2 cells; conditions: calibrated against propranolol; plasma as medium for atovaquone and piperaquine; ref Charman et al., 2020 1; cited from earlier work
# [3] = cited from earlier work
# [4] = cited from earlier work; for CL renal: PBPK input, ref amodiaquine, DEAQ Winstanley et al., atovaquone Rolan et al., 1997 14, azithromycin Lalak et al., 1993 23, carboxyprimaquine Mihaly et al., 1985 26, chloroquine Walker et al., 1987 29, DHA EMA Website, 44, doxycycline Raghuram et al., 1982 48, Nguyen et al., 1989 49, mefloquine Schwartz et al., 1982 57, primaquine White, 1985 62, pyrimeth; for CL renal / CL PO: 1987 9, proguanil Jeppesen et al., 1997 34; for CL PO: clinically observed oral (in vivo) clearance, pyronaridine: blood, ref amodiaquine Winstanley et al., DEAQ Akande et al., 2015 8, Scarsi et al., 2014 35, Tarning et al., 2012 36, Orrell et al., 2008 37, DHA Na-Bangchang et al., 2004 42, lumefantrine Lefevre et al., 2002 52, Hoglund et al., 2015 53, mefloquine Charles et al., 2007 56, pyronaridine Jittama
# [5] = In vitro flags for victim and perpetrator properties conferring DDI liability; assay type: in vitro ADME, human; conditions: in vitro flag, mainly based on in vitro determinations
# [6] = PBPK simulation of drug-drug interactions (Simcyp V19); design: species or system human; conditions: for AUC ratios Sim/Obs: ratio of simulated to clinically observed AUC ratio
# Description: Here, we provide three example applications where the available PBPK models were used to address questions relating to DDI assessment. […] Additional simulation methods are provided in Appendix S1.
# (§1) All simulations, including the ones performed for the applications, were run using Version 19 of the Simcyp population-based PBPK simulator (Simcyp (Certara), Sheffield, UK) and unless stated otherwise, input parameters for all drugs are as specified (Supplementary Information Table S1). All simulations were run using ten virtual trials that were matched as closely as possible to the clinical study volunteers in terms of the number of subjects, their age, the proportion of males/females and according to the same study design.
# [7] = Hepatic / HLM intrinsic clearance, enzyme not defined; conditions: for fm additional / undefined metabolism: human
# [8] = molecular target: CYP2C19 (Homo sapiens, UniProt P33261); assay: Metabolism by CYP2C19 (CLint, fm); assay type: in vitro ADME
# Sequence of CYP2C19 (P33261 whole entry): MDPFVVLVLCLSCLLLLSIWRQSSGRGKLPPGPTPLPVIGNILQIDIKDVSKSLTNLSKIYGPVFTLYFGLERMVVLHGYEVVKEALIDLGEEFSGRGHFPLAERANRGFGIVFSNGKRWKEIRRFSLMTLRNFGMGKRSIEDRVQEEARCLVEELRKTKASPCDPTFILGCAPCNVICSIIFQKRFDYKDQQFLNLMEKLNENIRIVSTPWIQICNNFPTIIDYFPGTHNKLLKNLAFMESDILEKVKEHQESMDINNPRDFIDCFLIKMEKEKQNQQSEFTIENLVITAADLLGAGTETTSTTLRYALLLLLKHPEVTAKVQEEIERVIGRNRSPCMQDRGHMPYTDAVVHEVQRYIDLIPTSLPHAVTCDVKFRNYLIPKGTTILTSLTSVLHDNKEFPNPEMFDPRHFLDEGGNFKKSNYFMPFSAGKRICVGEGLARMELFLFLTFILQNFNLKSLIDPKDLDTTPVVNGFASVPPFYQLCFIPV
# Description: (§2) In nearly all cases the fraction of systemic elimination metabolised by a given enzyme (fm) determined in vitro was unavailable in the literature.
# [9] = molecular target: CYP3A4 (Homo sapiens, UniProt P08684)
# Sequence of CYP3A4 (P08684 whole entry): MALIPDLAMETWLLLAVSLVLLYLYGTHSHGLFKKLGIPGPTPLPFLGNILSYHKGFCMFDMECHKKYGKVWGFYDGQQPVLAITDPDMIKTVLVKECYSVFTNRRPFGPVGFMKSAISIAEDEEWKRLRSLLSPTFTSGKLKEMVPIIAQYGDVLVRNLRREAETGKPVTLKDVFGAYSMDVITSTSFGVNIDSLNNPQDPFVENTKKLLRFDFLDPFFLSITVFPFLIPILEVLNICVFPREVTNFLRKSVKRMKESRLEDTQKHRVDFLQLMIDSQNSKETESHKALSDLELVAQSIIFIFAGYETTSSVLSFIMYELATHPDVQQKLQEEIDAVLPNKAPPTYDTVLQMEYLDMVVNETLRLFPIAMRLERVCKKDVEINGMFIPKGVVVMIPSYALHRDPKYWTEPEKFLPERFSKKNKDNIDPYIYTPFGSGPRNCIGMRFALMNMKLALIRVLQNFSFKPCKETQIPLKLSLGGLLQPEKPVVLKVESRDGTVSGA
# Description: as §2
# [10] = measured (0.4 mg/mL protein where stated); ref Charman et al., 2020 1; cited from earlier work
# [11] = lumefantrine: ACD labs value; ref Charman et al., 2020 1; cited from earlier work
# [12] = 2020 1, cited from earlier work
# [13] = cited from earlier work; for fu: PBPK input
# [14] = cited from earlier work; remark: listed apart in the source
# [15] = in vitro; conditions: human, plasma
# [16] = PBPK simulation of plasma Cmax and AUC (Simcyp V19); design: species or system human; conditions: single oral dose named in the block
# Description: as §1
# The available clinical PK data for performance verification of simulations was largely in healthy volunteers of either Caucasian or South-East Asian (Thai or Vietnamese) descent. For Caucasian subjects the default Sim-Healthy Volunteers virtual population was used without modification. […] The case study simulations presented in this paper used the Sim-Healthy Volunteers virtual population.
# [17] = Blood to plasma ratio (B:P); conditions: PBPK input; 0.55 = no uptake into RBC for a haematocrit of 45%
# [18] = 200 mg SD, 0-inf, ref Wattanagoon et al., 1987 17
# [19] = DDI of the respective line of Table S3
# [20] = from observed differences in metabolite formation, Jeppesen et al., 1997
# [21] = ratio of simulated to clinically observed Cmax ratio, DDI of the respective line of Table S3
# [22] = amodiaquine 600 mg SD (Day 6) + trimethoprim 160 mg QD (7 Days), ref Akande et al., 2015 1
structure (smiles),measurement,setting,value
"[H]/N=C(\N/C(=N/[H])Nc1ccc(Cl)cc1)NC(C)C [Proguanil, proguanil]",fumic,[1],0.66
same,Caco-2 (Papp A-B),[2],3.5 10-6 cm/s
same,Cmax Obs,"[3]; 200 mg QD (Day 14) EM, ref Helsby et al., 1993 19",190 ng/mL
same,Cmax Obs,"[3]; 200 mg QD (Day 14) PM, ref Helsby et al., 1993 19",338 ng/mL
same,AUC Obs,"[3]; 200 mg SD EM, 0-inf, ref Helsby et al., 1990 18",3396 ng·h/mL
same,Cmax Obs,"[3]; 200 mg SD EM, ref Helsby et al., 1993 19",209 ng/mL
same,AUC Obs,"[3]; 200 mg SD PM, 0-inf, ref Helsby et al., 1990 18",6563 ng·h/mL
same,Cmax Obs,"[3]; 200 mg SD PM, ref Helsby et al., 1993 19",273 ng/mL
same,Cmax Obs,"[3]; 200 mg SD, dose corrected to free base for simulations, ref Wattanagoon et al., 1987 17",170 ng/mL
same,AUC Obs,[3]; [18],2975 ng·h/mL
same,CL renal,[4],26.64 L/h
same,CL PO,[4],86.4 L/h
same,fe (fraction excreted unchanged in urine),[4]; in vivo,36%
same,Risk as a perpetrator,[5],CYP2D6 inhibitor
same,Risk as a victim,[5],Substrate of CYP2C19 and CYP3A4
same,AUC ratios Sim/Obs,[6]; [19],1.01 and 0.80
same,fm additional / undefined metabolism,[7],25%
same,Additional Undefined metabolism,[7]; retrograde calculations,13.46 µL/min/pmol
same,fmCYP2C19,"[8]; fraction metabolised used in the PBPK model (proguanil: total, all routes)",36%
same,"fmCYP2C19, additional",[8]; [20],9%
same,"fmCYP2C19, formation of CPBG",[8]; [20],8%
same,"fmCYP2C19, formation of cycloguanil",[8]; [20],17%
same,CLint CYP2C19 - additional,[8]; retrograde calculations,1.25 µL/min/pmol
same,CLint CYP2C19-mediated formation of 4-Chlorphenylbiguanide (CPBG),[8]; retrograde calculations,1.07 µL/min/pmol
same,CLint CYP2C19-mediated formation of Cycloguanil,[8]; retrograde calculations from CL PO,2.23 µL/min/pmol
same,CLint CYP3A4 formation of cycloguanil,[9],0.013 µL/min/pmol
same,fmCYP3A4,[9],3%
"CC1(C)N=C(N)N=C(N)N1c1ccc(Cl)cc1 [Cycloguanil, cycloguanil]",fumic,[1],0.911
same,fumic,[10],0.72
same,AUC Obs,"[3]; 200 mg QD (Day 14) EM, 0-24 h, ref Helsby et al., 1993 19",3170 ng·h/mL
same,AUC Obs,"[3]; 200 mg QD (Day 14) PM, 0-24 h, ref Helsby et al., 1993 19",1190 ng·h/mL
same,AUC Obs,"[3]; 200 mg SD EM, 0-72 h, ref Helsby et al., 1993 19",2350 ng·h/mL
same,AUC Obs,"[3]; 200 mg SD PM, 0-72 h, ref Helsby et al., 1993 19",983 ng·h/mL
same,AUC Obs,[3]; [18],661 ng·h/mL
same,Cmax Obs,"[3]; 200 mg SD, ref Wattanagoon et al., 1987 17",41 ng/mL
same,Log D pH 7.4,[11],1.1
same,B:P,[12]; ref Charman et al.,0.71
same,fu,"[13]; ref Charman et al., 2020 1",0.75
"CCNCc1cc(Nc2ccnc3cc(Cl)ccc23)ccc1O [DEAQ, desethylamodiaquine]",AUC Obs,"[3]; 600 mg QD (Day 3), 0-96 h, ref Scarsi et al., 2014 1",14571 ng·h/mL
same,Cmax Obs,"[3]; 600 mg QD (Day 3), ref Scarsi et al., 2014 1",495 ng/mL
same,CL renal,[4],1.4 L/h
same,CL PO,[4],32 L/h
same,AUC ratios Sim/Obs,[6]; [19],0.89
same,Cmax ratios Sim/Obs,[6]; [21],1.00
same,B:P,"[12]; PBPK input, ref artemether Colussi et al., 1999 11, atovaquone Rolan et al., 1997 14, Beerahee, 1999 16, Charman et al., azithromycin Pene Dumitrescu et al., 2013 21, DEAQ Winstanley et al., 1987 9, proguanil weighted mean Helsby et al., 1993 61, Wattanagoon et al., 1987 63",3
same,AUC ratio Obs,[14]; [22],0.874
same,Cmax ratio Obs,[14]; [22],0.75
same,Main binding protein,"[13]; ref amodiaquine, DEAQ Hietala, 2009 2, atovaquone Nixon et al., 2013 13, DHA Batty et al., 2004 41, mefloquine, tafenoquine (also AGP) Zsila et al., 2008 54",AGP
same,fraction unbound,[15],0.26
"CCCCN(CCCC)CC(O)c1cc(Cl)cc2c1-c1ccc(Cl)cc1/C2=C/c1ccc(Cl)cc1 (stereo not shown) [Lumefantrine, lumefantrine]",predicted AUC0-inf as % of the observed value,[16],approximately 66%
same,predicted Cmax as % of the observed value,[16],approximately 62%
same,AUC Obs,"[3]; 480 mg BID (Day 3) PM, 60-324 h, ref Huang et al., 2012 8",418000 ng·h/mL
same,AUC Obs,"[3]; 480 mg BID (Day 3) PM, 62-480 h, ref Lefevre et al., 2002 7",383000 ng·h/mL
same,Cmax Obs,"[3]; 480 mg BID (Day 3) PM, ref Huang et al., 2012 8",11600 ng/mL
same,Cmax Obs,"[3]; 480 mg BID (Day 3) PM, ref Lefevre et al., 2002 7",10000 ng/mL
same,AUC Obs,"[3]; 480 mg SD, 0-264 h, ref Lefevre et al., 2013 6",236000 ng·h/mL
same,AUC Obs,"[3]; 480 mg SD, 0-inf, ref Lefevre et al., 2002 5",207000 ng·h/mL
same,Cmax Obs,"[3]; 480 mg SD, ref Lefevre et al., 2002 5",7910 ng/mL
same,Cmax Obs,"[3]; 480 mg SD, ref Lefevre et al., 2013 6",8920 ng/mL
same,CL PO,[4],3.5 L/h
same,Risk as a perpetrator,[5],CYP2D6 inhibitor
same,Risk as a victim,[5],Substrate of CYP3A4
same,Cmax ratios Sim/Obs,"[6]; Day 7 concentrations, 480 mg BID (Day 22-24) + rifampicin 600 mg QD (Days 1-46)",0.23
same,Cmax ratios Sim/Obs,[6]; [21],0.61 and 0.92 and 1.08 and 1.06
same,B:P,[17],0.55
same,fm additional / undefined metabolism,[7],60%
same,AUC reduction,"[14]; human, in vivo",56%
same,fu,"[13]; ref atovaquone Mepron Prescribing Information, 2008, Nixon et al., 2013 13, Rolan et al., 1997 14, azithromycin Foulds et al., 1990 20, chloroquine Ofori-Adjei et al., 1986 27, Walker et al., 1983 28, DHA Batty et al., 2004 41 (healthy volunteers), lumefantrine CDER submission 22-269, proguanil Wattanagoon et al., 1987 63, tafenoquine Dow et al., 2020 84",0.003
same,fmCYP3A4,[9],40%
same,CLint CYP3A4,[9]; microsomes,0.9 µL/min/pmol

# Source: publication PMC10508484, “Development and application of a PBPK modeling strategy to support antimalarial drug development” (CPT: Pharmacometrics & Systems Pharmacology, 2023)
